Assay results taken from PMC10762035, “Molecular basis of human trace amine-associated receptor 1 activation” (Nature Communications, 2024).
Substitutions are numbered along the chain they refer to. Where “and” joins values, the source holds several entries; their conditions need not be identical. Equal entries are not always repeated. Where two headings read alike, the source gives them in different places.

Columns and labels:
Type in all cases: cell-based
hTA1 = molecular target: T1, hTA1 (Homo sapiens, UniProt Q96RJ0); experiment: GloSensor cAMP accumulation assay, concentration response, wild-type hTA1 in transfected HEK293T cells; conditions: for Emax: HEK-293T;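 for all read-outs here: luminescence read after 30 min compound exposure at room temperature in cells preloaded with D-Luciferin, reflecting Gs-driven cAMP rise, efficacy scaled to the maximal β-PEA response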
T1 construct: expressed in transfected cells; host or cells: HEK293T
T1 sequence (Q96RJ0 1-339): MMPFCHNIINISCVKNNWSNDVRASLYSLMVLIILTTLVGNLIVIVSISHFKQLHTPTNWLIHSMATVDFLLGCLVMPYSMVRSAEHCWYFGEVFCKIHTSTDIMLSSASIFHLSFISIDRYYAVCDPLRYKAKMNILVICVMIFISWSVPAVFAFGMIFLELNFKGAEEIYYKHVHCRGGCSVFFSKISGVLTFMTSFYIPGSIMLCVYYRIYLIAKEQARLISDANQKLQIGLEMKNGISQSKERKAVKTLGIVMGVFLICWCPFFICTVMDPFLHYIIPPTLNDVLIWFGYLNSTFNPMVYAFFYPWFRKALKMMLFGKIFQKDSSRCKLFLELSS

[1] = molecular target: T2, β2AR-Nterm-hTA1-F112^3.41W (CryoEM Construct) (Homo sapiens, UniProt Q96RJ0, F112W); experiment: GloSensor cAMP accumulation assay, cryoEM construct;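 note: cells transiently co-transfected with the receptor construct and GloSensor cAMP biosensor, luminescence read after 30 min compound exposure at room temperature in the dark as cAMP accumulation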;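 for Normalized Luminescence Counts (N=2): normalized to the maximum response of β-PEA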
T2 construct: FLAG (N); 10xHis (N); TEV protease site (N); expressed in transfected cells; host or cells: HEK293T
T2 sequence (Q96RJ0 with tags, fused parts or gaps F112W): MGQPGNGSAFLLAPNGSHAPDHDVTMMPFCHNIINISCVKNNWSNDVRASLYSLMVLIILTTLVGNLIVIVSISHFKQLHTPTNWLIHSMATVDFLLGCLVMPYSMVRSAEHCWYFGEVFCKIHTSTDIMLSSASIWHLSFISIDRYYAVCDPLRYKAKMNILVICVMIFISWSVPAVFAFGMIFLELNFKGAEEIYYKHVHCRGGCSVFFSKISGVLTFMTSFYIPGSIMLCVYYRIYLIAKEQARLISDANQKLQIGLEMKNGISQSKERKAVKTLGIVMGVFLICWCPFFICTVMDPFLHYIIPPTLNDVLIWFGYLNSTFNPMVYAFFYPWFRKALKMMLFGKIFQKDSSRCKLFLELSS

hTA1 C13S = molecular target: T3, hTA1 C13S (Homo sapiens, UniProt Q96RJ0, C13S); experiment: GloSensor cAMP accumulation assay, C13S mutant; conditions: for C13S - Normalized Luminescence Counts (N=2): log[Compound], single wells
T3 construct: expressed in transfected cells; host or cells: HEK293T
T3 sequence (Q96RJ0 1-339 C13S): T1 sequence (Q96RJ0 1-339) with C13S

hTA1 C96S = molecular target: T4, hTA1 C96S (Homo sapiens, UniProt Q96RJ0, C96S); experiment: GloSensor cAMP accumulation assay, C96S mutant; conditions: log[Compound]
T4 construct: expressed in transfected cells; host or cells: HEK293T
T4 sequence (Q96RJ0 1-339 C96S): T1 sequence (Q96RJ0 1-339) with C96S

hTA1 I290N = molecular target: T5, hTA1 I290N (Homo sapiens, UniProt Q96RJ0, I290N); experiment: GloSensor cAMP accumulation assay, I290N mutant;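 note: cells transiently co-expressing hTA1 and the GloSensor cAMP biosensor, luminescence read 30 min after compound addition at room temperature, efficacy scaled to the maximal β-PEA response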
T5 construct: expressed in transfected cells; host or cells: HEK293T
T5 sequence (Q96RJ0 1-339 I290N): T1 sequence (Q96RJ0 1-339) with I290N

CCC(CC1COC(N)=N1)c1ccccc1 (stereo not shown) [Ro5256390] was tested, and the EC50 (hTA1; EC50, wt hTA1, HEK293T, n=3) was 5.33 nM and 5.3 nM, the Emax (hTA1; read-out: Emax values (Mean), WT hTA1, β-PEA = 100, each line an independent experiment, 3 replicates) was 105% and the Emax (hTA1; wt hTA1, relative to β-PEA) was 103%. For the same compound, the “Emax values, Mean” value (hTA1; WT hTA1, β-PEA = 100, each line an independent experiment, 3 replicates) was 101.582, the “Emax values, Avg” value (hTA1; WT, average of the experiments, β-PEA = 100) was 103.3 and the “Emax values, Avg” value (hTA1; WT, average of the two experiments) was 103.3. For the same compound, the “Emax values, Mean” value (hTA1; WT, mean of each independent experiment (3 replicates), β-PEA = 100) was 105.026 and 101.582, the “Emax values, Mean” value (hTA1; WT, single experiments (3 replicates each), β-PEA = 100) was 105.026 and 101.582 and the EC50 (hTA1; pEC50 values (Mean), WT hTA1, each line an independent experiment, 3 replicates, Figure 2B source data) was 4.28 nM and 6.65 nM. For the same compound, the EC50 (hTA1; pEC50 ± SEM, wt hTA1, HEK293T, n=3) was 5.37 nM, the “ΔpEC50 values (each mutant value - WT average), Mean” value ([1]; Cryo EM Construct minus WT average) was 0.183 and 0.4564 and the “Normalized Luminescence Counts (N=2)” value ([1]; CryoEM Construct, log[Compound], M = -5, single replicates) was 109.262 and 115.846 and 129.746 and 127.392. For the same compound, the EC50 ([1]; EC50, CryoEM Construct, n=2) was 2.47 nM, the EC50 ([1]; pEC50 values, Mean, Cryo EM Construct, mean of each independent experiment (3 replicates)) was 3.5 nM and 1.87 nM and the Emax ([1]; read-out: Span ± SEM (Emax normalized to β-PEA)) was 102 ± 2.88%. For the same compound, the “ΔpEC50 values (each mutant value - WT average)” value (hTA1 C13S; C13S) was -0.1093 and -0.3651, the Emax values (hTA1 C13S; C13S, Mean of fit per experiment) was 104.119 and the EC50 (hTA1 C13S; EC50, C13S, n=2) was 9.21 nM. For the same compound, the “C13S - Normalized Luminescence Counts (N=2)” value (hTA1 C13S; M = -5) was 108.406 and 95.388 and 120.776 and 112.887 and 109.603 and 114.083, the “C13S - Normalized Luminescence Counts (N=2)” value (hTA1 C13S; M = -5.522) was 112.25 and 104.067 and 102.43 and 107.496 and 95.9649 and 109.96 and the “C13S - Normalized Luminescence Counts (N=2)” value (hTA1 C13S; M = -6) was 90.5159 and 87.1282 and 84.9205 and 101.909 and 92.8231 and 104.73. For the same compound, the “C13S - Normalized Luminescence Counts (N=2)” value (hTA1 C13S; M = -6.522) was 96.2254 and 77.4601 and 94.8551 and 102.052 and 85.8613 and 107.282, the EC50 (hTA1 C13S; pEC50 values, Mean, hTA1 C13S, mean of 3 replicates, one line per independent experiment) was 6.86 nM and 12.4 nM and the Emax (hTA1 C13S; read-out: Emax values, C13S, Mean of fit per experiment) was 96.6%. The Emax (hTA1 C13S; read-out: Span ± SEM (Emax normalized to β-PEA), C13S, n=2) was 100 ± 3.73%, the “Normalized Luminescence Counts” value (hTA1 C96S; C96S, M = -5, single replicates (N=2)) was -0.5726 and -3.209 and -1.891 and -16.2542 and -4.6346 and -2.698 and the “Normalized Luminescence Counts” value (hTA1 C96S; C96S, M = -5.522, single replicates (N=2)) was -1.891 (2×) and -3.209 and -4.6346 and -8.508 and 10.8582. For the same compound, the “Normalized Luminescence Counts” value (hTA1 C96S; C96S, M = -6, single replicates (N=2)) was 4.041 and -2.55 and -0.5726 and 5.048 (2×) and -10.4444, the “Normalized Luminescence Counts” value (hTA1 C96S; C96S, M = -6.522, single replicates (N=2)) was 1.4045 and -2.55 and 2.723 and -0.7614 and -4.6346 and 3.112 and the “Normalized Luminescence Counts” value (hTA1 C96S; C96S, M = -7, single replicates (N=2)) was 2.723 and -1.891 and 1.4045 and -0.7614 (2×) and -4.6346. The “Normalized Luminescence Counts” value (hTA1 C96S; C96S, M = -7.522, single replicates (N=2)) was 5.359 and -3.209 and 2.723 and -0.7614 and -10.4444 and 14.7315, the “Normalized Luminescence Counts” value (hTA1 C96S; C96S, M = -8, single replicates (N=2)) was 2.064 and -0.5726 (2×) and 30.2243 and -8.508 and 12.7948 and the “Normalized Luminescence Counts” value (hTA1 C96S; C96S, M = -8.522, single replicates (N=2)) was 0.7455 and -1.891 and 4.7 and 14.7315 and 3.112 and 12.7948. The “Normalized Luminescence Counts” value (hTA1 C96S; C96S, M = -9, single replicates (N=2)) was 0.7455 and -1.232 and -1.891 and 18.6047 and 8.922 and -4.6346, the “Normalized Luminescence Counts” value (hTA1 C96S; C96S, M = -9.522, single replicates (N=2)) was 0.08646 and -3.209 and -2.55 and 3.112 and 1.175 and -0.7614 and the “Normalized Luminescence Counts” value (hTA1 C96S; C96S, M = -10, single replicates (N=2)) was 1.4045 and -0.5726 and 0.7455 and 3.112 and -2.698 (2×). The “Normalized Luminescence Counts” value (hTA1 C96S; C96S, M = -10.522, single replicates (N=2)) was -0.5726 and -2.55 and -1.232 and 5.048 and 6.985 and -2.698, the “Normalized Luminescence Counts” value (hTA1 C96S; C96S, M = -11, single replicates (N=2)) was 0.7455 and 0.08646 and 4.7 and 32.1609 and 18.6047 and 10.8582 and the “Normalized Luminescence Counts” value (hTA1 C96S; C96S, M = -11.522, single replicates (N=2)) was 3.382 and 0.7455 and 1.4045 and 20.5413. For the same compound, the “Normalized Luminescence Counts” value (hTA1 C96S; M = -11.522, single replicates, mutant block above C178S) was 0.4362 and 0.4589 and 0.8459 and 2.031 and 1.818 and 1.444, the “Normalized Luminescence Counts” value (hTA1 C96S; M = -12, single replicates, mutant block above C178S) was 0.6183 and 0.1175 and -0.01903 and 3.527 and 0.8561 and 0.9629 and the “Normalized Luminescence Counts” value (hTA1 C96S; M = -12.522, single replicates, mutant block above C178S) was -0.1556 (2×) and -0.2011 and 1.711 and 1.818 and 0.6424. The EC50 (hTA1 I290N; EC50, I290N, n=2) was 6.21 nM, the “cAMP accumulation response, single replicate values (source data, Supplementary Figure 5)” value (hTA1 I290N; hTA1 I290N (N=2), log[Compound], M = -5) was 109.556 and 109.922 and 109.294 and 105.343 and the “ΔpEC50 values (each mutant value - WT average), Mean” value (hTA1 I290N; hTA1 I290N mutant minus WT average) was -0.14 and 0.00774. For the same compound, the “Emax values, Mean” value (hTA1 I290N; hTA1 I290N mutant, β-PEA set to 100, each grid row a separate experiment, 3 replicates) was 96.7119, the EC50 (hTA1 I290N; pEC50 values (Mean), hTA1 I290N mutant, Figure 3B source data, each grid row a separate experiment, 3 replicates) was 7.37 nM and 5.24 nM and the Emax (hTA1 I290N; read-out: Emax values (Mean), hTA1 I290N mutant, β-PEA set to 100, each grid row a separate experiment, 3 replicates) was 101%. The Emax (hTA1 I290N; read-out: Span ± SEM (Emax normalized to β-PEA), I290N, n=2) was 99 ± 2.27%.
